Several values for one entry are separate records, joined by “and”; a condition that tells them apart may be missing. Equal entries are not always repeated.
Experiments:
hTRPML1∆NC-YFP [1] = molecular target: hTRPML1∆NC-YFP (Homo sapiens, UniProt Q9GZU1); assay type: cell-based; conditions: for inhibitory effect on TRPML1: 12.5 µM compound, 5 µM ML-SA1, Fig. 1f; for IC50: read-out: TRPML1 IC50, concentration-response retest of screening hits and steroids, Fluo-4, 5 µM ML-SA1, Fig. 1b-e, S1; for TRPML1-inhibitory activity, SAR summary: random screening or consecutive experiments
Method: (§1) To identify inhibitors of TRPML1 and TRPML3, the Spectrum Collection compound library (MS Discoveries; 2000 compounds) and additional 430 bioactive compounds were screened. To this end, fluorometric Ca^2+ influx assays were performed by using the calcium dye Fluo-4/AM (Invitrogen, Thermo Fisher Scientific, Waltham, MA, USA) and a custom-made fluorescence imaging plate reader built into a robotic liquid handling station (Freedom Evo 150, Tecan, Männedorf, Switzerland). […] Screening compounds dissolved in DMSO (10 mM) were prediluted in 150 mM NaCl, 20 mM HEPES, pH 7.4, to a concentration of 200 µM. For primary screens, HEK293 stably expressing plasma membrane-targeted TRPML1 or TRPML3 were trypsinized and resuspended in cell culture medium supplemented with 4 µM Fluo-4/AM. After incubation at 37 °C for 30 min, the cell suspension was briefly centrifuged resuspended in HBS, and dispensed into black pigmented, clear-bottom 384-well microwell plates (Greiner μClear, Frickenhausen, Germany). Plates were placed into the FLIPR and fluorescence signals (excitation 470 nm, emission 515 nm) were recorded with a Zyla 5.5 camera (Andor, Belfast, UK) and the μManager software like previously described. In a first video, compound libraries were successively added to the cells with the Tecan 96-tip multichannel arm to a final concentration of 20 µM to map unspecific effects like autofluorescence or toxicity. In a second step the agonist ML-SA1 was pipetted in each well and fluorescence signals were recorded for 10 min. Analyses were done by calculating fluorescence intensities for each well and background areas with ImageJ (National Institutes of Health, Bethesda, MD, USA). Finally, the background was subtracted and the fluorescence intensities were normalized to initial intensities (F/F0). Concentration response curves were generated by the same procedure but compounds were manually prediluted in 96-well plates containing HBS, now supplemented with 0.1% bovine serum albumin. Here data was fitted to a four-parameter Hill equation to obtain Imin, Imax, IC50), and the Hill coefficient n.

hTRPML3-YFP = molecular target: T1, hTRPML3-YFP (Homo sapiens, UniProt Q8TDD5); assay: Fluo-4 Ca2+ influx assay, HEK293 stably expressing hTRPML3-YFP, activated with ML-SA1; assay type: cell-based; conditions: 12.5 µM compound, 5 µM ML-SA1, Fig. 1f
T1 construct: expressed in transfected cells
Method: To identify inhibitors of TRPML1 and TRPML3, the Spectrum Collection compound library (MS Discoveries; 2000 compounds) and additional 430 bioactive compounds were screened. To this end, fluorometric Ca^2+ influx assays were performed by using the calcium dye Fluo-4/AM (Invitrogen, Thermo Fisher Scientific, Waltham, MA, USA) and a custom-made fluorescence imaging plate reader built into a robotic liquid handling station (Freedom Evo 150, Tecan, Männedorf, Switzerland). All measurements were done in a HEPES buffered solution (HBS), containing 132 mM NaCl, 6 mM KCl, 1 mM MgCl2, 1 mM CaCl2, 5.5 mM D-glucose, 10 mM HEPES, pH 7.4. Screening compounds dissolved in DMSO (10 mM) were prediluted in 150 mM NaCl, 20 mM HEPES, pH 7.4, to a concentration of 200 µM. For primary screens, HEK293 stably expressing plasma membrane-targeted TRPML1 or TRPML3 were trypsinized and resuspended in cell culture medium supplemented with 4 µM Fluo-4/AM. After incubation at 37 °C for 30 min, the cell suspension was briefly centrifuged resuspended in HBS, and dispensed into black pigmented, clear-bottom 384-well microwell plates (Greiner μClear, Frickenhausen, Germany). Plates were placed into the FLIPR and fluorescence signals (excitation 470 nm, emission 515 nm) were recorded with a Zyla 5.5 camera (Andor, Belfast, UK) and the μManager software like previously described. In a first video, compound libraries were successively added to the cells with the Tecan 96-tip multichannel arm to a final concentration of 20 µM to map unspecific effects like autofluorescence or toxicity. In a second step the agonist ML-SA1 was pipetted in each well and fluorescence signals were recorded for 10 min. Analyses were done by calculating fluorescence intensities for each well and background areas with ImageJ (National Institutes of Health, Bethesda, MD, USA). Finally, the background was subtracted and the fluorescence intensities were normalized to initial intensities (F/F0). Concentration response curves were generated by the same procedure but compounds were manually prediluted in 96-well plates containing HBS, now supplemented with 0.1% bovine serum albumin. Here data was fitted to a four-parameter Hill equation to obtain Imin, Imax, IC50), and the Hill coefficient n.

hTRPML1∆NC-YFP [2] = assay type: cell-based, human; conditions: for primary screen result: 20 µM compound, 5 µM ML-SA1, TRPML1 and TRPML3; for TRPML1 versus TRPML3 selectivity: Fluo-4, TRPML1 vs TRPML3, 5 µM ML-SA1
Method: as §1

T1 sequence (Q8TDD5 whole entry): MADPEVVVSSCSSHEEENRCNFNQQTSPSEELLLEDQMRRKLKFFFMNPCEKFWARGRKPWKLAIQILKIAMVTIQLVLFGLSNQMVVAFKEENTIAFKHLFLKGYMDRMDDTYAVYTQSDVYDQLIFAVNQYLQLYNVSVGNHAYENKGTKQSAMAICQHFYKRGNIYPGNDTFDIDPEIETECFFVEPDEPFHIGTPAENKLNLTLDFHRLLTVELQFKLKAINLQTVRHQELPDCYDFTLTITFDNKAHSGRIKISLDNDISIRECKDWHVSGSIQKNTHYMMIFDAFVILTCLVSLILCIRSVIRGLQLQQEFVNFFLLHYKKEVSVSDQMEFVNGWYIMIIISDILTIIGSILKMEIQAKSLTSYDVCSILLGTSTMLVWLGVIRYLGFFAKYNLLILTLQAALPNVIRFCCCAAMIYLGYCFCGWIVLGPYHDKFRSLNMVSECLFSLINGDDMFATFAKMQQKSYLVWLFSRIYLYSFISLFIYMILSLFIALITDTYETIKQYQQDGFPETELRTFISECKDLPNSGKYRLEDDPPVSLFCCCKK
Sequence of hTRPML1∆NC-YFP (Homo sapiens, UniProt Q9GZU1) (Q9GZU1 whole entry): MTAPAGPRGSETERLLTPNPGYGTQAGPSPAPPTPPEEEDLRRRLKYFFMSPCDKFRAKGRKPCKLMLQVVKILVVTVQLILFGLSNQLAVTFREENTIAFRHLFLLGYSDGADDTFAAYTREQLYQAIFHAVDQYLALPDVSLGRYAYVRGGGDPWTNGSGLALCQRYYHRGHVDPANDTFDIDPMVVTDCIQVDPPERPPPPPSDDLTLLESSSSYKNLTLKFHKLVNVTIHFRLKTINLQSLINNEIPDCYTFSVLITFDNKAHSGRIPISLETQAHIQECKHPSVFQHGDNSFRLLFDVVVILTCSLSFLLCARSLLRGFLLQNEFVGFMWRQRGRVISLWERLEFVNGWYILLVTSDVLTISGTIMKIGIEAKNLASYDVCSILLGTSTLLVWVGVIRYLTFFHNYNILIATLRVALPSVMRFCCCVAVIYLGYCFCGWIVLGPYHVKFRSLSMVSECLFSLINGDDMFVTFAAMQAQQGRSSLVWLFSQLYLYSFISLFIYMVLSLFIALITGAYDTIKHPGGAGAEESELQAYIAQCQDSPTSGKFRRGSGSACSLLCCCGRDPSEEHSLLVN

SMILES | inhibitory effect on TRPML1 (hTRPML1∆NC-YFP [1]) | inhibitory effect on TRPML3 (hTRPML3-YFP) | other results
C#CC1(O)CC[C@H]2[C@@H]3CCC4=CC(=O)CC[C@@H]4[C@H]3CC[C@@]21CC (mixture of isomers) [norgestrel, reference compound] | no effect | no effect | 
CC(=O)O[C@@H]1C=C[C@]2(C)C(C[C@@H](OC(C)=O)[C@]3(C)C4=CC(=O)O[C@H](c5ccoc5)[C@@]4(C)CCC23)C1(C)C (some centres unmarked) [DGA, deoxygedunol acetate, reference compound] |  |  | primary screen result (hTRPML1∆NC-YFP [2]): TRPML1 selective hit
C=C1C[C@H]2[C@@H]3C=C(C)C4=CC(=O)CC[C@]4(C)[C@H]3CC[C@]2(C)[C@@]1(OC(C)=O)C(C)=O [MGA, melengestrol acetate, reference compound] |  |  | IC50 (hTRPML1∆NC-YFP [1]): 19 µM and 18.6 µM; primary screen result (hTRPML1∆NC-YFP [2]): TRPML1 selective hit; TRPML1 versus TRPML3 selectivity (hTRPML1∆NC-YFP [2]): highly TRPML1-selective
O=C(O)CCCCCCCCCCCC[C@@H]1C=CCC1 [chaulmoorgic acid, reference compound] |  |  | primary screen result (hTRPML1∆NC-YFP [2]): TRPML1 selective hit
CC(C)CCC[C@@H](C)[C@H]1CC[C@H]2[C@@H]3CC=C4C[C@@H](O)CC[C@]4(C)[C@H]3CC[C@]12C [cholesterol, reference compound] | no effect | no effect | 
C[C@]12CCC3c4ccc(OS(=O)(=O)[O-])cc4CCC3C1CC[C@H]2O.[Na+] (some centres unmarked) [estradiol-3-sulfate sodium salt, reference compound] |  |  | TRPML1-inhibitory activity, SAR summary (hTRPML1∆NC-YFP [1]): eliminated TRPML1-inhibitory activity
COc1ccc2c(c1)CC[C@@H]1[C@@H]2CC[C@]2(C)C(=O)CC[C@@H]12 [estrone 3-methyl ether, reference compound] | no effect | no effect | 
C[C@]12CC[C@@H]3c4ccc(O)cc4CC[C@H]3[C@@H]1CCC2=O [estrone, reference compound] | no effect | no effect | 
C#C[C@]1(O)CC[C@H]2[C@@H]3CCc4cc(O)ccc4[C@H]3CC[C@@]21C [ethinylestradiol, reference compound] |  |  | TRPML1-inhibitory activity, SAR summary (hTRPML1∆NC-YFP [1]): only weakly active; TRPML1 versus TRPML3 selectivity (hTRPML1∆NC-YFP [2]): stronger inhibitory effects on TRPML1 than on TRPML3
C[C@]12CC[C@@H]3c4ccc(O)cc4C[C@@H](CCCCCCCCC[S+]([O-])CCCC(F)(F)C(F)(F)F)[C@H]3[C@@H]1CC[C@@H]2O (some centres unmarked) [fulvestrant, reference compound] | no effect | no effect | 
C[C@]12CCC(=O)C=C1CC[C@@H]1[C@@H]2[C@@H](O)C[C@@]2(C)[C@H]1CC[C@]2(O)C(=O)CO [hydrocortisone, reference compound] | no effect | no effect | 
C#C[C@]1(O)CC[C@H]2[C@@H]3CCc4cc(OC)ccc4[C@H]3CC[C@@]21C [mestranol, reference compound] | strongest effect |  | TRPML1-inhibitory activity, SAR summary (hTRPML1∆NC-YFP [1]): considerable activity; TRPML1 versus TRPML3 selectivity (hTRPML1∆NC-YFP [2]): stronger inhibitory effects on TRPML1 than on TRPML3
CC(=O)[C@H]1CC[C@H]2[C@@H]3CCC4=CC(=O)CC[C@]4(C)[C@H]3CC[C@]12C [progesterone, reference compound] | much weaker inhibitory effects |  | IC50 (hTRPML1∆NC-YFP [1]): 12 µM
C[C@]12CC[C@H]3[C@@H](CCC4=CC(=O)CC[C@@]43C)[C@@H]1CC[C@@H]2O [testosterone, reference compound] | much weaker inhibitory effects |  | 

Reference: publication PMC8050276, “Estradiol analogs attenuate autophagy, cell migration and invasion by direct and selective inhibition of TRPML1, independent of estrogen receptors” (Scientific Reports, 2021)
